The source of these data is patent US4327100A, “2-(Alkoxy-phenyl)-imidazo(4,5-b)pyridines and salts thereof” (Boehringer Ingelheim GmbH, priority 1979, dated 1982).

Holding throughout (format): in vivo
One data set relates to anesthetized cat. Put plainly: Effect on blood pressure and positive inotropic activity in the anesthetized cat. Conditions: 2.0 mg/kg i.v., average value, at least 3 cats. The procedure: 1. Determination of the effect on blood pressure and of the positive inotropic activity in the anesthetized cat
The test was performed on cats which were anesthetized with pentobarbital sodium (40 mg/kg i.p.). The animals breathed spontaneously. The arterial blood pressure was measured in the aorta abdominalis by a Statham pressure transducer (P 23 Dc). The positive inotropic effect was determined by measuring the pressure in the left ventricle by means of a catheter tip manometer (Millar PC 360 A). The contractility parameter (dp/dtmax) was registered by means of an analog differentiating circuit.
The test compound was injected into the vena femoralis. Physiological sodium chloride solution or polydiol 200 was used as solvent. Each substance was tested in at least 3 cats, dose 2 mg/kg i.v.

A short description of data set [1]: Acute toxicity in white mice after oral administration. The following applies: mouse, in vivo, single oral dose 300 mg/kg, observation time 14 days. How it is done:
(§1) The acute toxicity was determined in white mice after oral administration of a single dose of 300 mg/kg (observation time: 14 days).

A further data set concerns white mice. The data set is described as above. Conditions: single oral dose 300 mg/kg, observation time 14 days. The procedure: as §1

As for `COc1ccc(-c2nc3ncccc3[nH]2)c(OCC[S+]([O-])c2ccccc2)c1` (centres unmarked) [A, 2-[2-(2-Phenylsulfinyl-ethoxy)-4-methoxyphenyl]imidazo[4,5-b]pyridine], the “Change in blood pressure, second value of the printed pair (diastolic, not labelled in the patent)” value (from here on “Change … (diastolic, not labelled in the patent)”) with anesthetized cat came out at 20 mmHg.
Take `COc1ccc(-c2nc3ncccc3[nH]2)c(OCC[S+]([O-])c2ccc(Cl)cc2)c1` (centres unmarked) [B, 2-{2-[2-(4-Chlorophenylsulfinyl)-ethoxy]-4-methoxyphenyl}-imidazo-[4,5-b]pyridine]: the “Change … (diastolic, not labelled in the patent)” value in the data set with anesthetized cat is given as 42 mmHg. The molecule further gave an LD50 at 336 h in data set [1] of more than 300 mg/kg. The animals died in the data set on white mice is 0 out of 6.
With `COc1ccc(-c2nc3ncccc3[nH]2)c(OCC[S+]([O-])c2ccc(C)cc2)c1` (centres unmarked) [C, 2-{2-[2-(4-Methylphenylsulfinyl)-ethoxy]-4-methoxyphenyl}-imidazo[4,5-b]pyridine], the “Change … (diastolic, not labelled in the patent)” value in the data set on anesthetized cat was determined as 45 mmHg. This molecule also registered an LD50 at 336 h in data set [1] of more than 300 mg/kg. The animals died in the data set with white mice is on record as 0 out of 6.
Take `COc1ccc(-c2nc3ncccc3[nH]2)c(OCC[S+]([O-])c2cc(OC)c(OC)cc2C)c1` (centres unmarked) [D, 2-{2-[2-(2-Methyl-4,5-dimethoxyphenylsulfinyl)-ethoxy]-4-methoxyphenyl}-imidazo[4,5-b]pyridine]: the “Change … (diastolic, not labelled in the patent)” value in the data set with anesthetized cat came out at 5 mmHg. Moreover, the LD50 at 336 h in data set [1] was more than 300 mg/kg. The animals died in the data set with white mice is on record as 0 out of 6.
With `COc1ccc(-c2nc3ncccc3[nH]2)c(OCC[S+]([O-])c2ccc([N+](=O)[O-])cc2)c1` (centres unmarked) [E, 2-{2-[2-(4-Nitrophenylsulfinyl)-ethoxy]-4-methoxyphenyl}-imidazo[4,5-b]pyridine], in the data set with anesthetized cat, the “Change … (diastolic, not labelled in the patent)” value was 32 mmHg.

For orientation: LD50 means the dose at which mortality reaches 50%. Read a high LD50 as a less toxic substance.
